Measurements taken from PMC3187750, “Functional Analysis of the Cytoskeleton Protein MreB from Chlamydophila pneumoniae” (PLoS ONE, 2011).

What was measured:
[1] = target: T1, MreB from C. pneumoniae (chlamydial MreB) (Chlamydia pneumoniae, UniProt A0ABN3YSA6); settings: 5 µM MreB, 200 µM ATP; polymerizing (5 mM MgCl2, pH 7) and monomeric (no MgCl2, pH 8) conditions
T1 sequence (A0ABN3YSA6 2-366): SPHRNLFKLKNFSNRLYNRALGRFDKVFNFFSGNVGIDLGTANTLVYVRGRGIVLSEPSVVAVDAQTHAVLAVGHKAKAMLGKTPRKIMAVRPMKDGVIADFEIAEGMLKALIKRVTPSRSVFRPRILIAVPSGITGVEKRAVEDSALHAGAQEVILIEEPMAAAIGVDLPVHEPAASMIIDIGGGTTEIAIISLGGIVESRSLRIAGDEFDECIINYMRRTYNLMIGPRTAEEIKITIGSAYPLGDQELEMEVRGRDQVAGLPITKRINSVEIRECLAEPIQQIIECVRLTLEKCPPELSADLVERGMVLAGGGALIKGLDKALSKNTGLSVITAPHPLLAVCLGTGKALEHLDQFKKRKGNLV

[2] = target: T1, MreB from C. pneumoniae (chlamydial MreB); test: light scattering polymerization assay; format: biochemical; set-up: pET-21b, EcoRI/XhoI, C-terminal His6 tag kept; expressed in E. coli BL21(DE3); Ni-NTA purified; settings: standard polymerization conditions (5 µM MreB, 5 mM MgCl2, pH 7, 20 °C)

| Compound | phosphate release, molybdate-malachite green assay [1] | light scattering polymerization assay [2] |
| --- | --- | --- |
| Nc1ncnc2c1ncn2[C@@H]1O[C@H](COP(=O)(O)OP(=O)(O)OP(=O)(O)O)[C@@H](O)[C@H]1O [ATP] | The C345A mutant and wild-type MreB proteins hydrolyzed ATP without marked differences | – |
| Nc1nc2c(ncn2[C@@H]2O[C@H](COP(=O)(O)OP(=O)(O)OP(=O)(O)O)[C@@H](O)[C@H]2O)c(=O)[nH]1 [GTP] | – | In the presence of GTP, the kinetics and extent of wild-type MreB polymerization was impaired |
